Reference: ChEMBL document CHEMBL4651402, “Screening of ~5500 FDA-approved drugs and clinical candidates for anti-SARS-CoV-2 activity” (2021)
pIC50: −log10 of the molar value. Bridge positions count the residues as written; N and C are the ends. Square brackets hold non-standard residues; d marks the D form. Peptide text beside a SMILES is read from it. * marks the point of attachment. Ileψ(thiazoline)Cys = CC[C@H](C)[C@H](N)C1=N[C@H](C(=O)*)CS1; dOrn = NCCC[C@@H](N)C(=O)O

Tested on: SARS-CoV-2
Experiment: microbe, parasite or virus in culture
Conditions: Severe acute respiratory syndrome coronavirus 2, Vero C1008, 48 h; for IC50: read-out: pIC50 (converted)

| SMILES | pIC50 | IC50 |
| --- | --- | --- |
| CCCCOC(=O)c1ccc(N)cc1 [BUTAMBEN] | < 4.70 | > 20 µM |
| C#Cc1cncc([C@@H]2CCCN2C)c1 [ALTINICLINE] | < 4.70 | > 20 µM |
| N[C@@H](C(=O)N[C@@H]1C(=O)N2C(C(=O)O)=C(Cl)CS[C@H]12)c1ccccc1 [CEFACLOR ANHYDROUS] | < 4.70 | > 20 µM |
| NC1CCCCC1 [CYCLOHEXYLAMINE] | < 4.70 | > 20 µM |
| NCCCC(N)C(=O)O (configuration not stated) [ORNITHINE aKETOGLUTARATE] | < 5.00 | > 10 µM |
| CCCCC1=NC2(CCCC2)C(=O)N1Cc1ccc(-c2ccccc2-c2nnn[nH]2)cc1 [IRBESARTAN] | < 4.70 | > 20 µM |
| COc1ccc(-c2cc(=O)c3ccccc3o2)cc1 [4'-METHOXYFLAVONE] | < 4.70 | > 20 µM |
| CC(C)CC(NC(=O)C(Cc1ccccc1)NC(=O)CNC(=O)C(C)NC(=O)C(N)Cc1ccc(O)cc1)C(=O)O (configuration not stated) | < 4.70 | > 20 µM |
| CN(C(=O)CNC(=O)CN)c1ccc(Cl)cc1C(=O)c1ccccc1Cl [LORZAFONE ANHYDROUS] | < 4.70 | > 20 µM |
| C[C@@H]1O[C@@H](O[C@H]2CC[C@]3(C=O)[C@H]4CC[C@]5(C)[C@@H](C6=CC(=O)OC6)CC[C@]5(O)[C@@H]4CC[C@]3(O)C2)[C@H](O)[C@H](O)[C@H]1O [CONVALLATOXIN] | < 4.70 | > 20 µM |
| O=C(O)c1ccccc1NCCc1ccccc1 [ENFENAMIC ACID] | < 4.70 | > 20 µM |
| O=c1oc2cc(O)ccc2s1 [TIOXOLONE] | < 4.70 | > 20 µM |
| O=C(O)c1cccc2c1Nc1cc(C(F)(F)F)ccc1S2 [FLUTIAZIN] | < 4.70 | > 20 µM |
| N[C@@H]1[C@H]2CN(c3nc4c(cc3F)c(=O)c(C(=O)O)cn4-c3ccc(F)cc3F)C[C@@H]12 [TROVAFLOXACIN] | < 4.70 | > 20 µM |
| Oc1ccc(C(O)CNCCCCCCNCC(O)c2ccc(O)c(O)c2)cc1O (configuration not stated) [HEXOPRENALINE] | < 4.70 | > 20 µM |
| O=C(O)Cc1cn(-c2ccccc2)nc1-c1ccc(Cl)cc1 [LONAZOLAC] | < 4.70 | > 20 µM |
| Cc1nc2ccccc2n1Cc1ccc(Cl)cc1 [CHLORMIDAZOLE] | < 4.70 | > 20 µM |
| OC[C@@H]1CCCN2CCCC[C@H]12 [LUPININE] | < 4.70 | > 20 µM |
| Oc1c(Cc2ccccc2)ccc2ccccc12 | < 4.70 | > 20 µM |
| COC1=C(OC)C(=O)C(CCCCCCCCCCO)=C(C)C1=O [IDEBENONE] | < 4.70 | > 20 µM |
| CCOc1ccc(NC(=O)CC(C)O)cc1 (configuration not stated) [BUCETIN] | < 4.70 | > 20 µM |

| SMILES | pIC50 | IC50 |
| --- | --- | --- |
| CC(=O)Nc1c(I)c(NC(C)=O)c(I)c(C(=O)O)c1I [DIATRIZOIC ACID] | < 4.70 | > 20 µM |
| CN(C)CCN1C(=O)CC(c2ccccc2)Sc2ccccc21 (configuration not stated) [THIAZESIM] | < 4.70 | > 20 µM |
| N#CC[C@H](C1CCCC1)n1cc(-c2ncnc3[nH]ccc23)cn1 [RUXOLITINIB] | < 4.70 | > 20 µM |
| COC(=O)C(N)Cc1ccc(O)c(O)c1 (configuration not stated) | < 4.70 | > 20 µM |
| Cc1cc(C(=O)NNCc2ccccc2)no1 [ISOCARBOXAZID] | < 4.70 | > 20 µM |
| Nc1nc(N)c(-c2ccccc2)s1 [AMIPHENAZOLE] | < 4.70 | > 20 µM |
| CCC1(C2=NCCN2)Cc2ccccc2O1 (configuration not stated) [EFAROXAN] | < 4.70 | > 20 µM |
| O=C1C(=O)c2ncccc2-c2cccnc21 [PHANQUONE] | < 4.70 | > 20 µM |
| CS(=O)(=O)c1ccc([C@@H](O)[C@@H](CO)NC(=O)C(Cl)Cl)cc1 [THIAMPHENICOL] | < 4.70 | > 20 µM |
| C=CCC1(CC=C)C(=O)NC(=O)NC1=O [ALLOBARBITAL] | < 4.70 | > 20 µM |
| CC(=O)OC[C@H]1O[C@@H](S)[C@H](OC(C)=O)[C@@H](OC(C)=O)[C@@H]1OC(C)=O | < 4.70 | > 20 µM |
| CCc1ccc(C(=O)C(C)CN2CCCCC2)cc1 (configuration not stated) [EPERISONE] | < 4.70 | > 20 µM |
| COc1cc2nccc(Oc3ccc(NC(=O)C4(C(=O)Nc5ccc(F)cc5)CC4)cc3)c2cc1OC [CABOZANTINIB] | < 4.70 | > 20 µM |
| Cc1ccc(C23CNCC2C3)cc1 (configuration not stated) [BICIFADINE] | < 4.70 | > 20 µM |
| COc1ccc2cc1Oc1cc3c(cc1OC)CC[N+](C)(C)C3Cc1ccc(cc1)Oc1c(OC)c(OC)cc3c1C(C2)[N+](C)(C)CC3 (configuration not stated) | < 4.70 | > 20 µM |
| Clc1ccc(OC[C@@H]2CCN2)cn1 | < 4.70 | > 20 µM |
| NCC1O[C@H](O[C@@H]2C(N)C[C@@H](N)C(O[C@H]3OC(CO)[C@@H](O)C(N)C3O)C2O)C(N)C(O)[C@@H]1O (some centres not stated) | < 4.70 | > 20 µM |
| CCN(CC)CCOCCOC(=O)C1(c2ccccc2)CCCC1 [CARBETAPENTANE] | < 4.70 | > 20 µM |
| CC(=O)N[C@@H](CC(=O)O)C(=O)N[C@@H](CCC(=O)O)C(=O)O [ISOSPAGLUMIC ACID] (Ac-Asp-Glu-OH) | < 4.70 | > 20 µM |
| COc1ccc([C@@H]2CNC(=O)[C@@H](Cc3cccc(C)c3)C2)cc1OC1CCCC1 | < 4.70 | > 20 µM |
| C[C@]1(c2nc3c(C(N)=O)cccc3[nH]2)CCCN1 [VELIPARIB] | < 4.70 | > 20 µM |

| SMILES | pIC50 | IC50 |
| --- | --- | --- |
| CC(C)=CCC[C@@](C)(O)[C@H]1CC=C(C)CC1 | < 4.70 | > 20 µM |
| COc1ccc2c(c1)c(CC(=O)NO)c(C)n2C(=O)c1ccc(Cl)cc1 [OXAMETACIN] | < 4.70 | > 20 µM |
| CCOC(=O)C1=C(CN2CCOCC2)NC(c2nccs2)=NC1c1ccc(F)cc1Br (configuration not stated) | < 4.70 | > 20 µM |
| O=C1CC[C@@]2(O)[C@H]3Cc4ccc(O)c5c4[C@@]2(CCN3CC2CC2)[C@H]1O5 [NALTREXONE] | < 4.70 | > 20 µM |
| COc1ccc(CCN(C)CCCC2(c3ccc(OC)c(OC)c3)S(=O)(=O)CCCS2(=O)=O)cc1OC | < 4.70 | > 20 µM |
| CC[C@H](C)[C@H](N)C1=N[C@H](C(=O)N[C@@H](CC(C)C)C(=O)N[C@H](CCC(=O)O)C(=O)N[C@H](C(=O)N[C@H]2CCCCNC(=O)[C@H](CC(N)=O)NC(=O)[C@@H](CC(=O)O)NC(=O)[C@H](Cc3cnc[nH]3)NC(=O)[C@@H](Cc3ccccc3)NC(=O)[C@H]([C@@H](C)CC)NC(=O)[C@@H](CCCN)NC2=O)[C@@H](C)CC)CS1 [BACITRACIN] ({Ileψ(thiazoline)Cys}-L[dE]IK[dOrn]I[dF]H[dD]N; lactam 4-C) | < 4.70 | > 20 µM |
| CC(N)(Cc1ccc(O)c(O)c1)C(=O)O (stereo not drawn) [METHYLDOPA (RACEMIC)] | < 4.70 | > 20 µM |
| CCn1cc(C(=O)O)c(=O)c2ccc(C)nc21 [NALIDIXIC ACID] | < 4.70 | > 20 µM |
| CCCC1(CCC)CCC2(CCN(CCCN(CC)CC)C2)CC1 [ATIPRIMOD] | < 4.70 | > 20 µM |
| CCOC(=O)[C@H](C)C[C@@H](Cc1ccc(-c2ccccc2)cc1)NC(=O)CCC(=O)O [SACUBITRIL] | < 4.70 | > 20 µM |
| O=C(COCCOCCOCC(=O)Nc1c(I)cc(I)c(C(=O)O)c1I)Nc1c(I)cc(I)c(C(=O)O)c1I [IOTROXIC ACID] | < 4.70 | > 20 µM |
| Nc1ncnc2c1ncn2C1OC(COP(=O)(O)O)C(O)C1O (configuration not stated) | < 4.70 | > 20 µM |
| CC(=O)Nc1ccc(/C=N/NC(N)=S)cc1 [AMITHIOZONE] | < 4.70 | > 20 µM |
| O=C1CN2CCOC2(c2ccccc2Cl)c2cc(Cl)ccc2N1 (configuration not stated) [CLOXAZOLAM] | < 4.70 | > 20 µM |
| O=C(c1cc(Cc2n[nH]c(=O)c3ccccc23)ccc1F)N1CCN(C(=O)C2CC2)CC1 [OLAPARIB] | < 4.70 | > 20 µM |
| COCC(=O)Nc1c(I)c(C(=O)NCC(O)CO)c(I)c(C(=O)N(C)CC(O)CO)c1I (configuration not stated) [IOPROMIDE] | < 4.70 | > 20 µM |
| C[C@@H]1CN(Cc2ccc(F)cc2)CCN1C(=O)COc1ccc(Cl)cc1NC(N)=O [BX 471 FREE BASE] | < 4.70 | > 20 µM |
| CCC1(c2c[nH]cn2)Cc2ccccc2C1 [ATIPAMEZOLE] | < 4.70 | > 20 µM |
| COc1cc(CC(=O)NCCCc2ccc(C)c(C)c2)ccc1OCCN [DAVASAICIN] | < 4.70 | > 20 µM |
